Consider 2 molecules from paper PMC5066224, “A Novel Resveratrol Based Tubulin Inhibitor Induces Mitotic Arrest and Activates Apoptosis in Cancer Cells” (Scientific Reports, 2016).

One assay deals with A549 cells. The assay can be described thus: Immunofluorescence microscopy of spindle microtubule organisation. It counts as cell-based, human. The note with it: A549, positive control, compared to untreated cells. The method, then:
Immunofluorescence microscopy was performed as previously described. A549 cells were grown on coverslips coated with gelatin (0.1%). […] After 24 h of the treatment nonspecific antibody binding sites were blocked using FBS following which cells were incubated with antitubulin antibody (1:500) at RT. Coverslips were washed in PBS, incubated in biotinylated antimouse secondary antibody (1:500; RT for 1 h) followed by Streptavidin-FITC (1:200). Finally, cells were mounted with DABCO and images were captured using Zeiss Fluorescence microscope and analyzed using Axio vision software. Colchicine treated cells were used as a positive control.

The test system of a further assay is CEM cells. The assay can be described thus: Intracellular ROS production (H2DCFDA, flow cytometry). It counts as cell-based, Human. The conditions noted are these: 5 to 60 min. The method, then:
Intracellular ROS generation in cells was assessed using the oxidation-sensitive fluorescent probe 2,7-dichlorodihydro fluorescein diacetate (H2DCFDA) as previously described. CEM cells were treated with SS28 (5 μM) for 5, 10, 15, 30 and 60 min, harvested, washed and incubated with H2DCFDA (30 min at 37 °C) and then fluorescence intensity was analyzed by flow cytometry. H2O2 was used as the positive control.
On the technique in general: A flow cytometer gives signals particle by particle.

SMILES strings stand for the structures.

As to `COc1cc2c(c(OC)c1OC)-c1ccc(OC)c(=O)cc1[C@@H](NC(C)=O)CC2` [Colchicine, reference compound], the “effect on chromosomes and mitosis (immunofluorescence)” value in the assay with A549 cells is “chromosome condensation and metaphase arrest was observed”.
For `OO` [H2O2, reference compound], the “intracellular ROS production” value in the assay with CEM cells is recorded as “distinct ROS production”.
